The values below are quoted from earlier work in patent US12702690B2, “Cannabinoid compositions and dosage forms for intranasal or inhalational delivery” (RHODES TECHNOLOGIES, priority 2020, dated 2026).

For data set [1] the following is noted: background statement.
For data set [2] the following is noted: following ingestion; Sharma et al. 2012.

`CCCCCc1cc(O)c2c(c1)OC(C)(C)C1CCC(C)=CC21` (single isomer, unassigned; (-)) [Dronabinol, (−)-trans-Δ^9-tetrahydrocannabinol]: the solubility in water entry in data set [1] is given as “insoluble in water”. In addition, the “time at which systemic absorption peaks” value in data set [2] was 1 to 2 h.
